Assay results published in patent publication US5763479A, “Naphthoquinone derivatives for the treatment of chronic inflammation” (KS Biomedix Ltd., priority 1991, dated 1998).
Read-outs that look alike come from different tables or passages of the source. Blank lines part the entries; values can stand above or below the compound they belong to.

Legend:
challenged joint = experiment: established immune (ovalbumin) arthritis in rabbits, oral menadione epoxide: joint temperature and degree of inflammation; format: in vivo, rabbit (New Zealand white)
Method: (§1) Twenty-two female New Zealand white rabbits (initial weight 1.5-2.0 kg) were immunised subcutaneously between the scapulae, with 0.5 ml of complete Freund's adjuvant containing 2.5 mg of ovalbumin (Sigma). A booster inoculation was given two weeks later. Four weeks after this, the right knee was challenged with an intra-articular injection (0.5 ml) of sterile saline containing ovalbumin (10 mg/ml). One week before this; twice a week for the next two weeks; and weekly thereafter, the temperature of both knees was measured on the medial side of the patella by means of a Digi-Sense thermocouple thermometer (Cole-Palmer Instrument Co., Chicago, Ill., U.S.A.). They were skin-tested before challenge to ensure that the cell-mediated immunity was equivalent in the treated and control rabbits. […] They were killed in pairs, treated and untreated, by intravenous injection of phenobarbitone sodium at various intervals from five to nine weeks later. After removal, the synovial tissue was cut into pieces of not greater than 0.5 cm^3; these were immersed for up to 1 min in a 5% solution of polyvinyl alcohol containing 5% CaCl2.2H2 O (Chayen et al, 1973) and then chilled to -70 ° C. in n-hexane (BDH: low in aromatic hydrocarbons grade). The tissue was stored in dry tubes at -70° C. and examined within two weeks.
Sections were cut (10 μm) in a Bright's cryostat (cabinet temperature of -30° C.) with the knife cooled with solid carbon dioxide. The sections were flash-dried on to slides taken from the ambient temperature of the laboratory (Chayen et al, 1973) and stored briefly in a desiccator before being tested for enzymatic activity.
Depending on the amount of tissue, sections were taken from up to fifteen regions of each challenged joint and stained with 0.1% toluidine blue in 0.1M acetate buffer, pH 6.1. They were assessed for thickening of the synovial lining cell layer; degree of infiltration by both chronic and acute inflammatory cells; and fibrosis. Each of these criteria was evaluated on a scale that ranged from 0 to ++. A value based on all these criteria was given for the response in each challenged joint and the degree of inflammation of the whole joint was assessed on an arbitrary scale of - to ++.

[1] = test system: glucose 6-phosphate dehydrogenase (G6PD); experiment: G6PD activity in synovial lining and desquamating cells of arthritic rabbits treated with menadione epoxide; format: in vivo, rabbit
Method: as §1, with “weeks. […]” for “weeks.”

[2] = test system: 6-phosphogluconolactonase (6PGL); experiment: 6PGL activity in synovial lining and desquamating cells of arthritic rabbits treated with menadione epoxide; format: in vivo, rabbit
Method: as §1, with “weeks. […]” for “weeks.”

G6PD [3] = target: T1, G6PD (Homo sapiens, UniProt P11413); experiment: decrease in G6PD activity in synovial lining cells of human rheumatoid tissue maintained in vitro; format: cell-based; set-up: synovial lining cells of human rheumatoid tissue maintained in vitro; from tissue; host or cells: human rheumatoid synovial tissue (synovial lining cells), maintained in vitro; conditions: mean±SEM
Text: The percentage decreases in […] activity (mean±SEM) in the synovial lining cells of human rheumatoid tissue maintained in vitro, induced by naphthoquinone of formula I (R=H, X=O), including compounds outside the scope of the invention, are given in Table 2.

[4] = redox potential (E1/8) against a standard calomel electrode; format: physicochemical; conditions: for E1/2 (mV): Table 2
[5] = test system: 6-phosphogluconolactonase (6PGL); experiment: 6PGL in synovial lining cells of arthritic rabbits (Example 2); format: in vivo, rabbit; conditions: 25 mg/kg orally twice a week, six weeks; olive oil alone 2.5±0.3
Method: (§2) In each of separate groups of six, rabbits were treated with the same volume of either olive oil alone or dimethoxynaphthoquinone in olive oil for six weeks after the initiation of arthritis (six weeks after challenge). The treatment was 25 mg/kg orally twice a week.
(§3) The rabbits were investigated for the concentration of G6PD, 6PGL and 6PGD in synovial lining cells. The respective mean values (±SEM) for the treatment of olive oil alone were 15.4±1.9, 2.5±0.3 and 8.2±1.1; the results for those treated with dimethoxynaphthoquinone were 7.7±1.2, negligible and 4.6±1.1.

[6] = test system: 6-phosphogluconate dehydrogenase (6PGD); experiment: 6PGD in synovial lining cells of arthritic rabbits (Example 2); format: in vivo, rabbit; conditions: 25 mg/kg orally twice a week, six weeks; olive oil alone 8.2±1.1
Method: as §2, §3

[7] = test system: glucose 6-phosphate dehydrogenase (G6PD); experiment: G6PD in synovial lining cells of arthritic rabbits (Example 2); format: in vivo, rabbit
Method: as §2, §3

[8] = chemical stability and reactivity; format: physicochemical; conditions: no double bond between positions 2 and 3
G6PD [9] = target: T1, G6PD; experiment: G6PD activity before and after intra-articular injection in patients with chronic arthritic inflammation; format: in vivo
Method: (§4) Two human patients suffering from chronic arthritic inflammation were given intra-articular injections of menadione bisulphite. The G6PD activity (mean integrated extinction ×10^3 /10 min) and lysosomal latency (% bound activity) were measured before and after injection. The G6PD activity decreased from 423 to 188 in one case and from 245 to 127 in the other; the lysosomal latency increased, respectively from 0 to 13 and from 0 to 31 (normal values are around 40% latency).

lysosomal latency = lysosomal latency before and after intra-articular injection in patients with chronic arthritic inflammation; format: in vivo, human; conditions: before injection 0, normal around 40%
Method: as §4

chronic RA = experiment: therapeutic efficacy by intra-articular injection in chronic RA patients; format: in vivo, human; conditions: intra-articular injections
Text: Other soluble compounds of the invention are menadiol diphosphate, menadiol disulphate and 2-methyl-1,4-naphthohydroquinone bis(hydrogen succinate), sodium salt.

solubility = format: physicochemical
neotetrazolium chloride = conditions: sections of various tissues; compared with phenazine methosulphate; cited from earlier work
immune arthritis = conditions: rabbits fed by gavage, cited from earlier work

T1 sequence (P11413 2-515 limits assumed): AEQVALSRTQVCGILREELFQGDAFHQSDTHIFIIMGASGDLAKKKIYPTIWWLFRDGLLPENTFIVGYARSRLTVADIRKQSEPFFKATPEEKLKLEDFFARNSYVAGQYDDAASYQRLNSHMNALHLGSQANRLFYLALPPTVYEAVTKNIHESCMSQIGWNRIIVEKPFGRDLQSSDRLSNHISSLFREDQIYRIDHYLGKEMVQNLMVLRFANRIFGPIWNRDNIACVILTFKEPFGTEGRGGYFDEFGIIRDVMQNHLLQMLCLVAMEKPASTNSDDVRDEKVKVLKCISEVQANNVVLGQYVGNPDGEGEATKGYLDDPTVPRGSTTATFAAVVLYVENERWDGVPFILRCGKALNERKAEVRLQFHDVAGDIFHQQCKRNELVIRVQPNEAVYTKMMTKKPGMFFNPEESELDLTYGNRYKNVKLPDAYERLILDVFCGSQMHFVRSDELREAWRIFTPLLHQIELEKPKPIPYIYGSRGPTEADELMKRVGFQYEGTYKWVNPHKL

Structure (SMILES): CC12OC1C(=O)c1ccccc1C2=O (centres unmarked) [menadione epoxide]
median overall difference in temperature expressed per day (group) (challenged joint; from two weeks after treatment until killed, control median 0.589 (0.308 to 0.687), p=0.04): 0.096 °C day | overall degree of inflammation in the challenged joint (challenged joint; one of the twelve treated rabbits (totally negative)): - | overall difference in temperature between challenged and unchallenged knees, expressed per day (single rabbit) (challenged joint; one treated rabbit, from two weeks after start of treatment until killed, 25 mg/kg bi-weekly by gavage, control rabbit 0.7110): 0.096 °C | inflammation assessed by temperature in vivo, visual inspection post mortem and histological examination (challenged joint; oral administration, established chronic inflammation): marked decrease in the inflammation | G6PD activity in the desquamating cells ([1]; desquamating cells, as against 25.5 units in "rheumatoid" intact lining cells and 6 units in normal joints): 45.7 units | effect on G6PD activity ([1]; synovial lining cells): decrease both activities towards normal levels | 6PGL activity in the desquamating cells ([2]; desquamating cells, despite very elevated G6PD): no equivalent increase | effect on 6PGL activity ([2]; synovial lining cells): decrease both activities towards normal levels

Structure (SMILES): COC1=C(OC)C(=O)c2ccccc2C1=O [dimethoxynaphthoquinone, 2,3-dimethoxy-1,4-naphthoquinone]
% decrease in G6PD (G6PD [3]): 49 ± 14.0% | E1/2 (mV) [4]: -250 mV | concentration of 6PGL in synovial lining cells (mean ±SEM) [5]: negligible | concentration of 6PGD in synovial lining cells (mean ±SEM) [6]: 4.6±1.1 | concentration of G6PD in synovial lining cells (mean ±SEM) ([7]; 25 mg/kg orally twice a week, six weeks, olive oil alone 15.4±1.9): 7.7±1.2 | effect on all three enzyme activities: G6PD ([7]; summary in words for G6PD, 6PGL and 6PGD): greatly reduced

Structure (SMILES): CC1=C(SC[C@H](NC(=O)CC[C@H](N)C(=O)O)C(=O)NCC(=O)O)C(=O)c2ccccc2C1=O [3-glutathionylmenadione, reference compound]
% decrease in G6PD (G6PD [3]): 37 ± 13.0% | E1/2 (mV) [4]: -170 mV

Structure (SMILES): CC1=C(SCCC(N)C(=O)O)C(=O)c2ccccc2C1=O (centres unmarked) [3-homocysteinylmenadione, reference compound]
% decrease in G6PD (G6PD [3]): 25 ± 9.7% | E1/2 (mV) [4]: -190 mV

Structure (SMILES): CC1=CC(=O)c2ccccc2C1=O [menadione, 2-methyl-1,4-naphthoquinone]
solubility (solubility): lipid soluble | transfer of reducing equivalents to neotetrazolium chloride (neotetrazolium chloride): as effective as phenazine methosulphate | % decrease in G6PD (G6PD [3]): 38 ± 6.9% | E1/2 (mV) [4]: -220 mV | redox potential (E1/8) ([4]; recorded against a standard calomel electrode, 90% ethanol-0.005M acetate buffer pH 4.0): -220 mV | chronic inflammation assessed histologically and by enzyme activity in synovial lining cells (immune arthritis; versus control animals): marked diminution | effect on immune arthritis (immune arthritis): significantly ameliorates | effect on immune arthritis (immune arthritis; listed as Menadione): effective

More lines, main results first:

redox potential (E1/8) measured in human plasma ([4]; human plasma): -640 mV | redox potential compared with menadione ([4]; versus menadione): higher redox potential than menadione | reactivity with thiols [8]: unreactive
Structure (SMILES): CC1(S(=O)(=O)O)CC(=O)c2ccccc2C1=O (centres unmarked) [menadione bisulphite, 2-methyl-l,4-dioxotetralin-sulphonate]
G6PD activity after injection (G6PD [9]; first patient, before injection 423): 188 mean integrated extinction ×10^3 /10 min | G6PD activity after injection (G6PD [9]; second patient, before injection 245): 127 mean integrated extinction ×10^3 /10 min | lysosomal latency after injection (lysosomal latency; first patient): 13 % bound activity | lysosomal latency after injection (lysosomal latency; second patient): 31 % bound activity | therapeutic efficacy (chronic RA): demonstrated

% decrease in G6PD (G6PD [3]): 61% | E1/2 (mV) [4]: -290 mV
Structure (SMILES): CC1=C(C)C(=O)c2ccccc2C1=O [dimethylnaphthoquinone, 2,3-dimethyl-1,4-naphthoquinone]

% decrease in G6PD (G6PD [3]): 47 ± 11.5% | E1/2 (mV) [4]: -355 mV
Structure (SMILES): CC1=C(O)C(=O)c2ccccc2C1=O [phthiocol]
